{"source": "ChEMBL document CHEMBL5465560", "about": "“Selectivity Literature for EUbOPEN Chemogenomic Library” (2024)", "key": {"[1]": {"target": "Histone-lysine N-methyltransferase 2C (Homo sapiens) (UniProt Q8NEZ4)", "sequence (Q8NEZ4 whole entry)": "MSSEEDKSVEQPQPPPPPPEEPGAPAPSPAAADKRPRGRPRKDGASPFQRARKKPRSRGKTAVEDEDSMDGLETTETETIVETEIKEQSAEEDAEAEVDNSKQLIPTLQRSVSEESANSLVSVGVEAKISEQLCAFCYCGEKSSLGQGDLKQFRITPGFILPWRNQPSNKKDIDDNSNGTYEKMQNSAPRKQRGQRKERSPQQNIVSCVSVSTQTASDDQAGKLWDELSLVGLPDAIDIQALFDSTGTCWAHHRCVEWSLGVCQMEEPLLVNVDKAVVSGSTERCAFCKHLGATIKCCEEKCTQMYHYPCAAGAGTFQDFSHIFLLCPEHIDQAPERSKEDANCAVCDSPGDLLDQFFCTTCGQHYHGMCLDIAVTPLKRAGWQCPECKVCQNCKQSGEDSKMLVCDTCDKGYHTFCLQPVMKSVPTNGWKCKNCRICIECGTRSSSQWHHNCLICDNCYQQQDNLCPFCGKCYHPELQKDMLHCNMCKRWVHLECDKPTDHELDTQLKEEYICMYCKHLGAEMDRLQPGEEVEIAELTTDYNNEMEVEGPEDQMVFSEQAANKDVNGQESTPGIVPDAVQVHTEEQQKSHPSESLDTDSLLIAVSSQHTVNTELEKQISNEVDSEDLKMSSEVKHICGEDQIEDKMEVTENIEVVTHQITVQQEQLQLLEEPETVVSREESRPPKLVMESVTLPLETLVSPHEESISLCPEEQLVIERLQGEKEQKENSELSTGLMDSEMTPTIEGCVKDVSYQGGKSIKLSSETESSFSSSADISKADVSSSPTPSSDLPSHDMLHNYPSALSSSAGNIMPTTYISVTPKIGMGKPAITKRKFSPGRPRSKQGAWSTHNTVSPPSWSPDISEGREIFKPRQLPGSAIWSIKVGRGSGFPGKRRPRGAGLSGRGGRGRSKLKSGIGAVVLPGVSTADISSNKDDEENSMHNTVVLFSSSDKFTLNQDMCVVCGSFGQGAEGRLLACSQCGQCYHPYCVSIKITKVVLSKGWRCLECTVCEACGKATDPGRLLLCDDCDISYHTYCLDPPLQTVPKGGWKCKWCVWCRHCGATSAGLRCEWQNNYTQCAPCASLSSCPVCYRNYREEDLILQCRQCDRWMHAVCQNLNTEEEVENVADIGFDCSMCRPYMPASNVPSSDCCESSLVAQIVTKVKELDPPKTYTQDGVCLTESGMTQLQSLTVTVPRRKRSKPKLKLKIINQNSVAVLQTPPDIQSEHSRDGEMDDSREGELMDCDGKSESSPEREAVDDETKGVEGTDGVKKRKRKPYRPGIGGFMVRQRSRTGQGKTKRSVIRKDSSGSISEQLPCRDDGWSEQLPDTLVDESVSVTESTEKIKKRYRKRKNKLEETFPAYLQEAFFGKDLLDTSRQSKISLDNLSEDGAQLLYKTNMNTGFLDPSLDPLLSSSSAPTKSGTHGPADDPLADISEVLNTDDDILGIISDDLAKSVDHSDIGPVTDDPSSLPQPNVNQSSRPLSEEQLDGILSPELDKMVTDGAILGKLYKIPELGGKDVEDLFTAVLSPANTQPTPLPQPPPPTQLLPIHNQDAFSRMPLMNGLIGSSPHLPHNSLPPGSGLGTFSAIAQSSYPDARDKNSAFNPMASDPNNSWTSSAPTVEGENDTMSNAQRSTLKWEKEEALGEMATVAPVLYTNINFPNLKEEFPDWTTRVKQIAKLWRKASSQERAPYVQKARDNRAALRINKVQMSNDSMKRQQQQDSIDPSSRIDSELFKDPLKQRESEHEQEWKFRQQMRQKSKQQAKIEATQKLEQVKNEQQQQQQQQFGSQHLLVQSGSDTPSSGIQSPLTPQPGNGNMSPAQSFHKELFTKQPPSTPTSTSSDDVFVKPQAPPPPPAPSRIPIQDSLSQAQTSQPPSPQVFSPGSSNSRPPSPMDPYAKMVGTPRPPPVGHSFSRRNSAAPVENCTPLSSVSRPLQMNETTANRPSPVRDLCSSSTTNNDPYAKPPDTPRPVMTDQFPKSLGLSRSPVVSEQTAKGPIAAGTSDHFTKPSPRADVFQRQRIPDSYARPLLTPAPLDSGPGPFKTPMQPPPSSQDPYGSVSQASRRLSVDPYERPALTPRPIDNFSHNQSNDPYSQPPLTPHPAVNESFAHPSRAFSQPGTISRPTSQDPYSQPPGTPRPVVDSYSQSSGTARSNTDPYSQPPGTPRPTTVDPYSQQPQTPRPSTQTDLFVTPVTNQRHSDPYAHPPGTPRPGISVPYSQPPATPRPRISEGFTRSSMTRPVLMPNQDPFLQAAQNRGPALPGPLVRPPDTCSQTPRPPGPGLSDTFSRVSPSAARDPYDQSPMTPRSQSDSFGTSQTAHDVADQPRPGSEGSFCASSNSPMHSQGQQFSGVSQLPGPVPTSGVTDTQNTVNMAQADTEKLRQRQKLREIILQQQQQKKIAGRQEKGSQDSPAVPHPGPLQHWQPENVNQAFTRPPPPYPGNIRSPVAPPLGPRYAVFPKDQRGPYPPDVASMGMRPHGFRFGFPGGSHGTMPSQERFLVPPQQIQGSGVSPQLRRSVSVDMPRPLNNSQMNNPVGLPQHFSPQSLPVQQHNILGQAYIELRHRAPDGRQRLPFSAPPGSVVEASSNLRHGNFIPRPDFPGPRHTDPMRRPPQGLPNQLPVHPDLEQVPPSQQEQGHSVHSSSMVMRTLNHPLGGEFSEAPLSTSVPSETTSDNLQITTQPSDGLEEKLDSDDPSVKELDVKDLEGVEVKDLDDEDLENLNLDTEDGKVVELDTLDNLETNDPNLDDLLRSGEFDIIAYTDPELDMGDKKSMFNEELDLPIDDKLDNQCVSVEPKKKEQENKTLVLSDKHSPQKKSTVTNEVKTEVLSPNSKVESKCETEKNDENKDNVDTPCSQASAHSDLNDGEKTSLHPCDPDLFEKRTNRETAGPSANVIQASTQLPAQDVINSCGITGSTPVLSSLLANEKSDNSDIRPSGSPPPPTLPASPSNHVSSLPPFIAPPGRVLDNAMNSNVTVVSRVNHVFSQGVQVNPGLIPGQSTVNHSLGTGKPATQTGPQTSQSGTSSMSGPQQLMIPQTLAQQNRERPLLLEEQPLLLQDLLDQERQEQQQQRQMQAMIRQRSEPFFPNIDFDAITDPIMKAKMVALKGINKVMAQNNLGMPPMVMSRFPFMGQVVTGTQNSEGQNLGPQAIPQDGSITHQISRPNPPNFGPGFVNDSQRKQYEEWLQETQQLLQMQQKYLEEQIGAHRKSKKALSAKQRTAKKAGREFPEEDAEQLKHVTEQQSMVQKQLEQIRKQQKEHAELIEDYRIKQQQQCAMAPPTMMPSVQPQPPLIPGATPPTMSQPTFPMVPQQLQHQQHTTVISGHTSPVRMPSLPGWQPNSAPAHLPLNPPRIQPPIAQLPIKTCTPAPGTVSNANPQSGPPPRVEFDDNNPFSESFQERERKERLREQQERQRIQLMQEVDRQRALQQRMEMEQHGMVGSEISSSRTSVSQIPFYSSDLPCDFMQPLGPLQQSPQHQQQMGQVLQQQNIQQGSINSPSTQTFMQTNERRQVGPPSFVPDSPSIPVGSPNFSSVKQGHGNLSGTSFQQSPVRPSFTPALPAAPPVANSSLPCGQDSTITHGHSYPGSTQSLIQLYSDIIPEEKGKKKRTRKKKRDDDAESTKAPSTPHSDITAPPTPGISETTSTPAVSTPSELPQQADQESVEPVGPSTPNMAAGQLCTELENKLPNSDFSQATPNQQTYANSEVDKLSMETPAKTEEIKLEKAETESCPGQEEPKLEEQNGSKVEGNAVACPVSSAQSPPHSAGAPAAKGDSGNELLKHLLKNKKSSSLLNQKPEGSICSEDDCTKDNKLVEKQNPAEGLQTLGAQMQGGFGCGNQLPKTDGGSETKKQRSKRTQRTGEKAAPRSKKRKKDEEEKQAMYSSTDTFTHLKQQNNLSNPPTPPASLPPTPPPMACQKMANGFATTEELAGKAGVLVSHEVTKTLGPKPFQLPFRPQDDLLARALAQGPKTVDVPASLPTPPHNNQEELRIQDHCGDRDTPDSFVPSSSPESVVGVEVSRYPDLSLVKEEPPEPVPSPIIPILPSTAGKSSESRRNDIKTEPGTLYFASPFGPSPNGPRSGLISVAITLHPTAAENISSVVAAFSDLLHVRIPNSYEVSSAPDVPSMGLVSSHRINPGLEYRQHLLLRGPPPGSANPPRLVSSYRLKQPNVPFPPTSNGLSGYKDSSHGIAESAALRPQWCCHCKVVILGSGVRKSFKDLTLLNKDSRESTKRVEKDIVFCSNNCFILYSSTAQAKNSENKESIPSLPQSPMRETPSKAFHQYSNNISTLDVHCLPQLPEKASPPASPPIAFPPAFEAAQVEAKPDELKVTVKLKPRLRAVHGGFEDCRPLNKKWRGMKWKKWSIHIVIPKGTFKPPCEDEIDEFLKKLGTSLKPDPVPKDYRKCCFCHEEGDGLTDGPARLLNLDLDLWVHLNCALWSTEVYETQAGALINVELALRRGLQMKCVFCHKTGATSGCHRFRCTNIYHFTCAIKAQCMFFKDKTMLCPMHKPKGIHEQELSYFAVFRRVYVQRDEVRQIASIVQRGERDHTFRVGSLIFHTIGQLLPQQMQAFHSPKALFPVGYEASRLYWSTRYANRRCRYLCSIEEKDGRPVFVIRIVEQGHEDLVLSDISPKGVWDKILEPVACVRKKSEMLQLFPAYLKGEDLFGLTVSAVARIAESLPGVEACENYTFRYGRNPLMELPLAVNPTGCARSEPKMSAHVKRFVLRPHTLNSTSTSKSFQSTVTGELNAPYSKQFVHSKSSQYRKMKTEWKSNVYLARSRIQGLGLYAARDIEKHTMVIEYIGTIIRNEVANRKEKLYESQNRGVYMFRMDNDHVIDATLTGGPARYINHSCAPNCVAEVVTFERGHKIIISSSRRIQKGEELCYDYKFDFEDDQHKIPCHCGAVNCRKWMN", "assay": "Selectivity interaction (Methyltransferase screen (radiometric assays, panel of 8 PRMTs, 21 protein lysine methyltransferases, 3 DNA methyltransferases, and one RNA methyltransferase)) EUB0000272b MLL3"}, "[2]": {"target": "Cyclin-dependent kinase 11B (Homo sapiens) (UniProt P21127)", "assay": "Selectivity interaction (KinomeScan (DiscoverX)) EUB0000092b CDK11B", "settings": "at 10 µM"}, "[3]": {"target": "T1, Bromodomain-containing protein 9 (Homo sapiens, UniProt Q9H8M2)", "T1 sequence (Q9H8M2 whole entry)": "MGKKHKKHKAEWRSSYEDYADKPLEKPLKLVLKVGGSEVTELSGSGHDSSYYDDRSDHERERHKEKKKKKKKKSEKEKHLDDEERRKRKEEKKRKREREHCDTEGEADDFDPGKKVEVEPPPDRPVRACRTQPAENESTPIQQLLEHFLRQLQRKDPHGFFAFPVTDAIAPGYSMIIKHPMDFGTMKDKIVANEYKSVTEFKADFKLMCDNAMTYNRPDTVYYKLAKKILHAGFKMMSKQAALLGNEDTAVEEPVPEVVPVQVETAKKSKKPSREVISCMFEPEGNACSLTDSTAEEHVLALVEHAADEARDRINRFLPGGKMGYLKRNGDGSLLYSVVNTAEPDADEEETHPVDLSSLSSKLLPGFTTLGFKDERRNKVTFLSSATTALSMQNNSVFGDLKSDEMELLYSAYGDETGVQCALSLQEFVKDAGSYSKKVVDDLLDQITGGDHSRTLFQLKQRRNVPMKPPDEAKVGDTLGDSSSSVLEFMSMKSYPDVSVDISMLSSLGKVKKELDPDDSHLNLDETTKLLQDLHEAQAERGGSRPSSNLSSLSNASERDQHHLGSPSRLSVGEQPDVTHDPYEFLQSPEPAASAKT", "assay": "Selectivity interaction (ITC measurement) EUB0000233b BRD9"}, "[4]": {"target": "T2, Mitogen-activated protein kinase kinase kinase kinase 2 (Homo sapiens) (UniProt Q12851)", "T2 sequence (whole entry)": "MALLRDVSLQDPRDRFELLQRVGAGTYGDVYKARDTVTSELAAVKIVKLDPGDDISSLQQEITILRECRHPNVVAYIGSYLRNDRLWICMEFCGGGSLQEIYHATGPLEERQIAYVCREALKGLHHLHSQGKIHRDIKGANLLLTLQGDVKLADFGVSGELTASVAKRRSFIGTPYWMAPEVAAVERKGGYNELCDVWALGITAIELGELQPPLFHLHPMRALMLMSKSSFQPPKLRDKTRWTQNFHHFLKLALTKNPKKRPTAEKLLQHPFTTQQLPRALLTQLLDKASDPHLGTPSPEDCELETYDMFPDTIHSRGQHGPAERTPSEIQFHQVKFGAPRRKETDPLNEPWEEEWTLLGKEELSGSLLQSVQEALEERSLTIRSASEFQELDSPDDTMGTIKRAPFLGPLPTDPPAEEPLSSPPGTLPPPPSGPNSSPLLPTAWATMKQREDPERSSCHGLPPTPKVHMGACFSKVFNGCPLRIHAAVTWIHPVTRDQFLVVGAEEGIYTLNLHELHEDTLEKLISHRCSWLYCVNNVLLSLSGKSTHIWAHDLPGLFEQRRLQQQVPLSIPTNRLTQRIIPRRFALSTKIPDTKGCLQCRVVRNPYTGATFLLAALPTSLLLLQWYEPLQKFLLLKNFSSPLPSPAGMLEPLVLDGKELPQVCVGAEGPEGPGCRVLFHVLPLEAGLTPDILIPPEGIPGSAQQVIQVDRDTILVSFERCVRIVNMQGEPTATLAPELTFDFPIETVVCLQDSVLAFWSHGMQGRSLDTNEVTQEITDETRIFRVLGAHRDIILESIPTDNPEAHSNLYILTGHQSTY", "assay": "Selectivity interaction (Kinase panel (KiNativ target engagement assay in Jurkat cells)) EUB0001635a MAP4K2", "type": "cell-based", "settings": "Selectivity number of off-targets 0.0, Selectivity number of targets 233.0, Source Knowledge https://www.sciencedirect.com/science/article/pii/S2451945619300674?via%3Dihub, at 1 µM"}, "[5]": {"target": "T3, Sphingosine kinase 2 (Homo sapiens) (UniProt Q9NRA0)", "T3 sequence (whole entry)": "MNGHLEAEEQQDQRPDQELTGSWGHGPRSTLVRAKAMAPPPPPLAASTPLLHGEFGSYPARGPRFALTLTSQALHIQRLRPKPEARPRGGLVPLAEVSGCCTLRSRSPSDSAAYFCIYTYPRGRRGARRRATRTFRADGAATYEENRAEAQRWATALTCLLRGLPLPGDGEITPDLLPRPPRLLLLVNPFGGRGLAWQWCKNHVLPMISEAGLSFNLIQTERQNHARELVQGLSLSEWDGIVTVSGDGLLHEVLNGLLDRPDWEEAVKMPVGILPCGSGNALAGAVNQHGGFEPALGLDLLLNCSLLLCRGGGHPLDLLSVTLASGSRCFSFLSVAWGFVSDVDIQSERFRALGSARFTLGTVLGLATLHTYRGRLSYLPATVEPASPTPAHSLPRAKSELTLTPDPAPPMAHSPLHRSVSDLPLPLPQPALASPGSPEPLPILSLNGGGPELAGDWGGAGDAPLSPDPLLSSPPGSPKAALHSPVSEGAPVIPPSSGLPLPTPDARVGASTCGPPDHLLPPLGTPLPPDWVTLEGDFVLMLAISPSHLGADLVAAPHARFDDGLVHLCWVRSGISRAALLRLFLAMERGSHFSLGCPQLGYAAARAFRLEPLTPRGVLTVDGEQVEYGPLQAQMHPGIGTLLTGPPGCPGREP", "assay": "Selectivity interaction (Kinase panel (Invitrogen)) EUB0000639a SPHK2", "settings": "at 200 nM"}, "[6]": {"target": "Cyclin-dependent kinase 11B (Homo sapiens) (UniProt P21127)", "assay": "Selectivity interaction (KinomeScan (DiscoverX)) EUB0001049a CDK11B", "settings": "at 1 µM"}, "[7]": {"target": "T4, Dual specificity mitogen-activated protein kinase kinase 4 (Homo sapiens) (UniProt P45985)", "T4 sequence (whole entry)": "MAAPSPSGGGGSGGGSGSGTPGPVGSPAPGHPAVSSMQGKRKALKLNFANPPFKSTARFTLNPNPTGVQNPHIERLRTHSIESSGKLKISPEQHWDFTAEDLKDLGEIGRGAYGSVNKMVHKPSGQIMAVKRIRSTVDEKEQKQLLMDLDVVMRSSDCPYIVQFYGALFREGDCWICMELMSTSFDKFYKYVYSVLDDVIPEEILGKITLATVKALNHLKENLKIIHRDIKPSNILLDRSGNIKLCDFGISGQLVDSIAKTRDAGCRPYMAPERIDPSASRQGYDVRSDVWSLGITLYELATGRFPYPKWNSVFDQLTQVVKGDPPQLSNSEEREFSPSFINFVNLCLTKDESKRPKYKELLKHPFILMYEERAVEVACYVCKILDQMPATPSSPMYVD", "assay": "Selectivity interaction (Ambit KINOMEscan and KiNATiv profiling in Jurkat cells) EUB0000090b MAP2K4", "type": "cell-based", "settings": "at 1 µM"}, "[8]": {"target": "Ribosomal protein S6 kinase alpha-1 (Homo sapiens, UniProt Q15418)", "assay": "Selectivity interaction (ActivX KiNativ screen (ex vivo kinase selectivity in human PBMCs)) EUB0001619a RPS6KA1", "type": "cell-based", "settings": "PBMC, at 1 µM"}}}
{"smiles": "Cc1cc(C)cc([C@H]2c3cc(C)ccc3NC(=O)CN2C(=O)c2ccc(Br)s2)c1", "values": [{"measurement": "% of activity", "setting": "[1]; at 1 µM", "result": 101, "unit": "%"}, {"measurement": "% of activity", "setting": "[1]; at 10 µM", "result": 92, "unit": "%"}]}
{"smiles": "CCC(=O)N1CCN(c2ccc(-n3c(=O)ccc4cnc5ccc(-c6cnc7ccccc7c6)cc5c43)cc2C(F)(F)F)CC1", "values": [{"measurement": "% of control", "setting": "[2]", "result": 97, "unit": "%"}]}
{"smiles": "CN(C)CCCOc1ccc(-c2cc(NCCCn3cccn3)nc(S(C)(=O)=O)n2)cc1", "values": [{"measurement": "Kd", "setting": "[3]", "result": 1100, "unit": "nM"}]}
{"smiles": "C=CC(=O)Nc1ccc(C(=O)Nc2[nH]nc3c2CN(C(=O)N[C@H](CN(C)C)c2ccccc2)C3(C)C)cc1", "values": [{"measurement": "% of engagement", "setting": "[4]", "result": -6.1, "unit": "%"}]}
{"smiles": "CC[C@@H]1[C@H](F)C(=O)N[C@@H]1COc1nccc2cc(C(N)=O)c(OC)cc12", "note": "[ZIMLOVISERTIB]", "values": [{"measurement": "% of inhibition", "setting": "[5]", "result": -0.837, "unit": "%"}]}
{"smiles": "COc1cc(Nc2nc(C)cc(-c3cnn4nc(OC)ccc34)n2)cc(C(F)(F)F)c1", "values": [{"measurement": "% of control", "setting": "[6]", "result": 100, "unit": "%"}]}
{"smiles": "CN(C)C/C=C/C(=O)Nc1ccc(C(=O)N2CCCC(Nc3ncc(Cl)c(-c4c[nH]c5ccccc45)n3)C2)cc1", "note": "(centres undefined)", "values": [{"measurement": "% of control", "setting": "[7]", "result": 70, "unit": "%"}]}
{"smiles": "N#Cc1cccc(-c2c[nH]c3ncnc(N4CCOCC4)c23)c1", "values": [{"measurement": "% of inhibition", "setting": "[8]", "result": -3, "unit": "%"}]}
